Oligonucleotides are written 5' to 3', each unit as a sugar letter and its base; * is a phosphorothioate linkage, no mark a phosphodiester; rarer units and linkages stand in square brackets, end groups in braces. Plain capitals give the bases only. {Fluorescein} = fluorescein label; d = 2'-deoxy (DNA)
Legend:
[1] = tested on: T24 bladder carcinoma cells; experiment: MTT cellular viability assay of paclitaxel-treated T24 cells; type: cell-based; details: 3 days paclitaxel, 24 hours treatment, 8 μM peptide / 2 μM oligonucleotide, 25 μM chloroquine pretreatment
Method: As a measure of the effectiveness of the peptide-delivered antisense inhibition of PKC-α the cells treated with peptide were exposed to paclitaxel, a compound commonly used in cancer therapy to inhibit microtubule depolymerization.
Cellular viability assay: Cells were seeded in 96-well tissue culture plates and treated the next day with oligonucleotide-peptide complexes for 24 hr. […] The cells were incubated for 4 hr at 37° C., 5% CO2 with 0.5 mg/mL MTT in complete media. An equal volume of solubilization solution (10% SDS in 0.01 M HCl) was then added and allowed to incubate overnight at 37° C. After the formazan crystals were dissolved, the plates were read on a Dynatech MR600 Microplate Reader at 540 nm.
Statistical analysis of the results was performed using the Analysis ToolPack provided by Microsoft Excel. A Student's two-sample t-test, assuming unequal variances, was used to determine the equality of the means of two samples. The confidence level was 0.05.

PKC-α [2] = experiment: Western blot of PKC-α protein expression in PC3 cells; type: cell-based; details: for inhibition of PKC-α protein expression, in words: long-peptide experiments, ISIS 3521 0.25-2 μM, ISIS 4559 2 μM, 25 μM chloroquine pre-treatment required; for inhibition of PKC-α protein expression (antisense activity), in words: short-peptide experiments, 2 μM oligonucleotide, 25 μM chloroquine preincubation
Method: (§1) Experiments using the protamine-NLS peptides to deliver antisense oligonucleotides were performed in T24 bladder carcinoma and PC-3 prostate carcinoma cells. In addition to the 20-mer ISIS 3521, the 18-mer phosphorothioate oligonucleotide G3139 (SEQ ID NO:6) was also employed. G3139 is targeted to the first six codons of the human bcl-2 open reading frame. […] The expression of PKC-α protein was assayed by Western blotting after 24 hr, while the expression of bcl-2 protein in PC3 cells was assayed similarly after a further 48 hr incubation in RPMI media containing 10% FBS. In both cases, the incubations were performed in the continuous presence of the peptide/oligonucleotide complexes.
(§2) Treatment of cells with oligonucleotide-peptide complexes: Cells were grown in six-well plates until 65-75% confluent. The peptides, at the stated peptide/oligonucleotide molar ratios, were diluted in 500 μL of Opti-MEM medium and oligonucleotide was then added up to the required concentration of 2 μM. The solution was mixed gently and incubated at room temperature for 30 min to allow oligonucleotide-peptide complexes to form. […] The cells were then incubated at 37° C. for 24 hr (for PKC-α) or re-fed with complete McCoy's 5A media containing 10% FBS and allowed to incubate for an additional 72 hr (for bcl-2) before cell lysis and extract preparation.
(§3) Western Blotting: Cells were treated with peptide-oligodeoxynucleotide complexes, scraped, washed with cold PBS and then extracted in […] of lysis buffer [50 mM Tris-HCl, pH 7.5; 1% NP-40; 0.25% sodium deoxycholate; 150 mM NaCl; 1 mM EGTA; 50 μg/mL Pefablock™ SC; 15 μg/mL aprotinin, leupeptin, chymostatin, and pepstatin A; 1 mM Na3VO4; 1 mM NaF] at 4° C. for 1 hr. Cell debris was removed by centrifugation at 14,000×g for 20 min at 4° C. Protein concentrations were determined using the Bio-Rad protein assay system (Bio-Rad Laboratories, Richmond, Calif.).
Aliquots of cell extracts containing 20-30 μg of protein were resolved by 10% or 12% SDS-polyacrylamide gel electrophoresis and transferred to Hybond ECL filter paper (Amersham, Arlington Heights, Ill.). Filters were incubated at room temperature for 1-2 h in Blotto A [5% non-fat milk powder in TBS-T:10 mM Tris-HCl, pH 8.0, 150 mM NaCl, 0.05% Tween 20 (for PKC-α) and 5% BSA in PBS, 0.5% Tween (for Bcl-2)] and then probed overnight at 4° C. with 1:1000 dilution of anti-PKC- or 1:500 dilution of anti-Bcl-2 in Blotto A. After washing in TBS-T or PBS-T buffer (3×7 min, room temperature), filters were incubated for 1 h at room temperature in 5% milk/TBS-T or 5% milk/PBS-T buffer containing a 1:3,000 dilution of peroxidase-conjugated anti-mouse secondary antibody. […]

PKC-α [3] = experiment: Western blot of PKC-α protein expression in T24 cells; type: cell-based; details: for inhibition of PKC-α protein expression (antisense activity), in words: short-peptide experiments, 2 μM oligonucleotide, 25 μM chloroquine preincubation
Method: as §1
as §2, with “The peptides, at the stated peptide/oligonucleotide molar ratios, were diluted in 500 μL of Opti-MEM medium and oligonucleotide was then added up to the required concentration of 2 μM.” left out
as §3
Aliquots of cell extracts containing 20-30 μg of protein were resolved by 10% or 12% SDS-polyacrylamide gel electrophoresis and transferred to Hybond ECL filter paper (Amersham, Arlington Heights, Ill.). […]

T24 cells = experiment: Fluorescence confocal microscopy of oligonucleotide delivery to the cell nucleus; type: cell-based; details: 2 μM 5′-fluorescein-labeled ISIS 3521; 8 μM and 6 μM peptide; T24 cells pretreated with 25 μM chloroquine; 24 hr
Method: The ability of the protamine-NLS peptides to deliver the oligonucleotides into the cell nucleus was evaluated by fluorescence confocal microscopy.
Confocal microscopy: Cells were seeded in glass bottom microwells (MatTec Corp., Mass.), and treated with peptide-oligodeoxynucleotide complexes at 37° C. for 24 hr. Cellular internalization was examined using an LSM 410 laser scanning confocal microscope (Zeiss, Thornwood, N.Y.) equipped with a krypton/argon laser and attached to a Zeiss Axiovert 100 TV microscope. The 515-540 nm bandpass for fluorescein was used. Z-series were taken of a 1 to 2 micron optical section at 2 μm intervals. For measurements, a maximum projection of all sections was employed.

bcl-2 = experiment: Western blot of bcl-2 protein expression in PC3 cells; type: cell-based, human; details: PC-3 cells; short-peptide experiments; 25 μM chloroquine pretreatment
Method: as §1
Treatment of cells with oligonucleotide-peptide complexes: Cells were grown in six-well plates until 65-75% confluent. […]
as §3, with “Cell debris was removed by centrifugation at 14,000×g for 20 min at 4° C.” left out, “Calif.). […]” for “Calif.).”

ISIS 3521 = experiment: Fluorescence titration: quenching of peptide Trp fluorescence by bound oligonucleotide; type: binding
Method: The interaction of ISIS 3521 (SEQ ID NO:5), a 20mer phosphorothioate antisense oligonucleotide, with the short and long protamine-NLS peptides (s-protamine-NLS and l-protamine-NLS) was evaluated by fluorescence spectroscopy. The peptide contains a single Trp residue (position 8 of the short peptide; SEQ ID NO:2) which can be excited at 290 nm and emits fluorescent light at 330 nm. The ability of a bound oligonucleotide to quench this fluorescent emission constitutes a relatively sensitive probe for the monitoring of molecular interactions.
The titration of a 5 μM solution of s-protamine-NLS (SEQ ID NO:2) with increasing concentrations of ISIS 3521 (SEQ ID NO:5), both in PBS and in Opti-MEM (without serum, to mimic transfection conditions), led to dramatic fluorescence quenching. At least two oligonucleotide binding modes can be easily discerned: At low oligonucleotide concentration (relative to s-protamine-NLS peptide) a plot of the decrease in fluorescence (due to quenching) vs. oligonucleotide concentration fits an equation of the Michaelis-Menton type. […] However, as oligonucleotide concentration is increased, Trp fluorescence continues to decline, but a similar plot no longer fits a Michaelis-Menton-type equation, and the binding becomes increasingly complex. Trp fluorescence is finally completely quenched (i.e., 100%) at a 4:1 molar ratio of peptide/oligonucleotide. […]

5′-GTTCTCGCTGGTGAGTTTCA-3′ (antisense dG*dT*dT*dC*dT*dC*dG*dC*dT*dG*dG*dT*dG*dA*dG*dT*dT*dT*dC*dA) [ISIS 3521]
cellular viability (reduction in cell proliferation by MTT assay), in words [1]: no effect on cell viability | inhibition of PKC-α protein expression, in words (PKC-α [2]): did not have antisense effects | inhibition of PKC-α protein expression (antisense activity), in words (PKC-α [2]): completely ineffective | inhibition of PKC-α protein expression (antisense activity), in words (PKC-α [3]): completely ineffective

5′-fluorescein-labeled ISIS 3521: ISIS 3521 labeled with fluorescein at the 5′ end, for confocal microscopy (antisense {Fluorescein}-dG*dT*dT*dC*dT*dC*dG*dC*dT*dG*dG*dT*dG*dA*dG*dT*dT*dT*dC*dA)
delivery of fluoresceinated oligonucleotide to the cell nucleus (T24 cells): internalized poorly

CCN(CC)CCCC(C)Nc1ccnc2cc(Cl)ccc12 (stereo not drawn) [chloroquine]
inhibition of Bcl-2 expression (antisense activity), in words (bcl-2): totally inactive | inhibition of PKC-α protein expression (antisense activity), in words (PKC-α [2]): did not downregulate PKC-α expression | inhibition of PKC-α protein expression (antisense activity), in words (PKC-α [3]): did not downregulate PKC-α expression

RRRRRRWGRRRRRRPKKKRKV [s-protamine-NLS, peptide with shorter protamine fragment and SV40 large T-antigen nuclear localization signal]
cellular viability (reduction in cell proliferation by MTT assay), in words [1]: no effect on cell viability | Kd (ISIS 3521; 5 μM s-protamine-NLS titrated with ISIS 3521, low oligonucleotide concentration, R^2=0.99, read-out: Kd from Lineweaver-Burke (double reciprocal) plot of fluorescence quenching): 80 nM | Trp fluorescence quenched (ISIS 3521; at a 4:1 molar ratio of peptide/oligonucleotide): 100% | delivery of fluoresceinated oligonucleotide to the cell nucleus (T24 cells): effectively delivered fluoresceinated oligonucleotide to the cell nucleus

l-protamine-NLS: long Arg-rich protamine fragment peptide with C-terminal SV40 large T-antigen nuclear localization signal (RRRRSRRRRRRFGRRRRRRVWRRRRPKKKRKV; NOVEL PEPTIDE - SV40/PROTAMINE SOURCE)
inhibition of PKC-α protein expression, in words (PKC-α [2]): no effect | inhibition of PKC-α protein expression, in words (PKC-α [3]; long-peptide experiments, ISIS 3521 0.25, 0.5, 1 μM, ISIS 4559 2 μM, chloroquine not required): no effect

s-protamine-scrambled NLS: control peptide: short protamine fragment with scrambled NLS sequence (RRRRRRWGRRRRRRPKGKRKV; CONTROL PEPTIDE)
delivery of fluoresceinated oligonucleotide to the cell nucleus (T24 cells): also promotes the delivery of the oligonucleotide to the nucleus
